Marks after values point to notes of the source that are not given here.
Legend:
[1] = system: Galleria mellonella larvae; experiment: In vivo toxicity in moth larvae; settings: for concentration without any toxicity in G. mellonella: 10 μL injected, five larvae per concentration, survival and health index over 96 hours, highest tested; for dosage without any toxicity in G. mellonella: equates to 0.4 mM, 10 μL injection
Protocol: Following a protocol previously reported by us we used larvae of the greater wax moth Galleria mellonella as a model organism for in vivo toxicity and efficacy.[20] […] Briefly, stock solutions of Pt1 and Pt2 were prepared in DMSO and diluted to final concentrations of 0.4 mM, 100 μM, 10 μM and 1 μM. […] For each concentration five larvae were injected with 10 μL and monitored for 96 hours for survival and health using the G. mellonella Health Index Scoring System.[22] […]
G. mellonella larvae were reared in controlled environmental room at Macquarie University, Sydney, Australia at 26 °C and 65% humidity with a 12-hours light/dark cycle. Larvae (~200 mg) were individually injected with 10 µL of chemical into the last right proleg using a 100 μL syringe (Hamilton Ltd). The […]
Each compound was dissolved in DMSO and diluted to final concentrations of 1 µM, 100 µM and 10 mM. We injected 5 larvae for each dilution of each compound.
Larvae injected with different dilutions of DMSO (10-1, 10-3 and 10-5) were included as negative controls.
Following injection, the larvae were incubated at 26 °C and monitored every 24 h for 4 days. Larval performance was assessed according to the G. mellonella Health Index Scoring System.[1] The experiments were repeated three separate times. […]

human red blood cells = experiment: Haemolysis assay; type: cell-based; settings: for Haemolysis HC10: concentration inducing 10 % haemolysis; for Haemolysis HC50: concentration inducing 50 % haemolysis
Protocol: As part of the CO‐ADD screening, all compounds that show any activity against a microbial strain are evaluated for their cytotoxicity against human embryonic kidney cells (HEK‐293) and for haemolysis against human red blood cells. None of the compounds tested for cytotoxicity (Pt1‐9 and Pd1) caused any significant cell death up to concentrations of 100 μM. […] We have also observed higher IC50 values for the methylated complexes Pt3 and Pt4 against HeLa cells in previous work.[16]
(§1) The resultant mid-log phase cultures were diluted
(§2) Gram-negative and Gram-positive bacteria, respectively.
(§3) final concentration range of 0.8 – 100 µM.
inhibitors as positive control.
Tamoxifen (Sigma T5648) was used
as internal control on each plate.
in a Neubauer haemocytometer.
incubated for 1 h at 37 °C, without shaking.
HC10 and HC50 (concentration at which 10%
for top, bottom and slope using Prism 8. […]

[2] = system: Escherichia coli ATCC 25922; experiment: Antibacterial MIC assay; type: cell-based; settings: CO‐ADD screening
Protocol: (§4) All compounds submitted to CO‐ADD are initially screened against five bacterial strains (Staphylococcus aureus (MRSA), E. coli, Klebsiella pneumoniae, Pseudomonas aeruginosa, Acinetobacter baumannii) and two fungal strains (Candida albicans, Cryptococcus neoformans) at a single concentration (32 μg/mL or 20 μM) performed as a high‐throughput primary screening.[[11], [17a]] Any compounds that show significant growth inhibition against any of the tested strains at this step are then evaluated in a dose‐response assay against these same strains. […]
(§5) Smiles: C1C=CCCC(=CC1)C1=CCCC=CCC1.C[Pt]C.C[Pt]C […]
(§6) ATCC strains were sourced from the American Type Culture Collection and NRS strains from NARSA (Network on Antimicrobial Resistance in Staphylococcus aureus) via BEI Resources (www.beiresources.org), with clinical MSSA and MRSA isolates from Prof Graeme Nimmo, Queensland […]
(§7) Health Central Pathology. […]
(§8) Antibacterial minimum inhibitory concentration (MIC) assay
(§9) Compound Assay Plate Preparation: Compounds were dissolved in DMSO at 10mM (CO-ADD screening) or 4 mM (follow up screening) and were plated in a 2-fold dose response from 20 to 0.156 µM or 200 to 0.006 µM respectively, with a maximum of 0.5% or 1% DMSO, final in the assay […]
(§10) plated in a 2-fold dose response from 200 to 0.006 µM, with a maximum of 1 % DMSO, final in the assay concentration. (in-house screening)
(§11) For all the bacterial assays, each strain was cultured in Cation-adjusted Mueller Hinton broth (CAMHB; Bacto Laboratories 212322) at 37 °C overnight. A sample of each culture was then diluted 40-fold in fresh CAMHB and incubated at 37 °C for 1.5–3 h. The resultant mid-log phase cultures were diluted with CAMHB (CFU mL−1 measured by OD600), then added to each well of the compound-containing plates (384-well non-binding surface (NBS) plates; Corning CLS3640), giving a cell density of 5 × 10^5 CFU mL−1 and a total volume of 50 μL. Plates were covered and incubated at 37 °C for 18 h without shaking. Inhibition of bacterial growth was determined measuring absorbance at 600 nm (OD600), using media only as negative control and bacteria without inhibitors as positive control. MIC values were determined as the lowest concentration at which the growth was inhibited at ≥80%. Colistin sulfate (Sigma C4461) and vancomycin HCl (Sigma 861987) were used as internal controls on each plate for Gram-negative and Gram-positive bacteria, respectively. […]

[3] = system: Acinetobacter baumannii ATCC 19606; experiment: Antibacterial MIC assay; type: cell-based; settings: CO‐ADD screening
Protocol: as §4, §5, §6, §7, §8, §9, §10, §11

[4] = system: Pseudomonas aeruginosa ATCC 27853; experiment: Antibacterial MIC assay; type: cell-based; settings: CO‐ADD screening
Protocol: as §4, §5, §6, §7, §8, §9, §10, §11

[5] = system: E. coli lpxC (non‐efficient lipid A production mutant); experiment: MIC against E. coli membrane mutants; type: cell-based, Escherichia coli; settings: Table S2
Protocol: as §8
(§12) concentration. (in-house screening)
(§13) Bacto Laboratories 212322) at 37 °C overnight.
as §1, §2, §3
(§14) inhibitors as positive control. […]

[6] = system: Staphylococcus aureus NRS 17, GISA; experiment: Antibacterial MIC assay, Gram-positive panel; type: cell-based; settings: n=2
Summary of the method: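 MIC is defined here as the lowest concentration inhibiting growth by ≥80% relative to untreated bacteria. The assay used OD600 in CAMHB after an 18 h, 37 °C incubation at 5 × 10^5 CFU/mL. Compound was dosed in 2-fold steps with DMSO capped at 0.5–1% final.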

[7] = system: E. coli tolC (efflux pump deficient); experiment: MIC against E. coli membrane mutants; type: cell-based, Escherichia coli; settings: Table S2
Protocol: as §8, §12, §13, §1, §2, §3, §14

[8] = system: E. faecium ATCC 51559 MDR, VRE; experiment: MIC in the presence of human serum (serum reversal); type: cell-based, Enterococcus faecium; settings: 10% serum
Description: (§15) To obtain some initial insight into the apparent disparity between in vitro and in vivo results, we repeated the MIC experiments against four selected Gram‐positive strains in the presence of 10 % or 50 % human serum (Table S3). Pt1 and Pt2 maintained some antibacterial activity against B. subtilis in the presence of 10 % serum, but a complete loss of activity was observed against MRSA and GISA (50 % serum), and VRE (10 % serum). […] Systemic administration is therefore unlikely to be a suitable administration route for this class of compounds unless an alternative formulation that can prevent serum binding (e. g. by lipid or nanoparticle encapsulation) can be found. […] Further in vivo studies should therefore focus on more suitable disease models. […]
as §8, §12, §13, §1, §2, §3, §14

[9] = system: B. subtilis ATCC 6051 type strain; experiment: as above; type: cell-based, Bacillus subtilis; settings: 10% serum
Description: as §15, §8, §12, §13, §1, §2, §3, §14

[10] = system: S. aureus ATCC 43300 MRSA; experiment: as above; type: cell-based, Staphylococcus aureus; settings: 50% serum
Summary of the method: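 MIC determination repeated in the presence of 10% or 50% human serum. Bacteria grown overnight at 37 °C, diluted from mid-log cultures, and tested at a final concentration range of 0.8–100 µM.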

Row | SMILES | concentration without any toxicity in G. mellonella [1] | dosage without any toxicity in G. mellonella [1] | Haemolysis HC10 (human red blood cells) | Haemolysis HC50 (human red blood cells) | MIC Ec [2] | MIC Ab [3] | MIC Pa [4] | MIC E. coli lpxC [5] | MIC ([6]; Table 2 panel) | MIC E. coli TolC [7] | MIC in the presence of human serum [8] | MIC in the presence of human serum [9] | MIC ([6]; Table S1 panel) | MIC in the presence of human serum [10]
1 | C1=C\CC/C=C\CC/1.[Cl-].[Cl-].[Pt+2] [Pt1, Pt(COD)Cl2] | ≥ 400 µM | 6 to 7.5 mg/kg | >100 µM | >100 µM | >20 µM | >20 µM | >20 µM |  |  |  |  |  |  | 
2 | C1=CCC/C=C\CC1.[I][Pt][I] [Pt2, Pt(COD)I2] | ≥ 400 µM | 9 to 11 mg/kg | >100 µM | >100 µM | >20 µM | >20 µM | >20 µM | 100 µM | 0.78–1.56^[b] μg/mL |  |  |  |  | 
3 | CCC1=CCCC=CCC1.[CH3][Pt][Cl] [Pt7] |  |  | 10.27 µM | 52.12 µM | >20 µM | >20 µM | >20 µM | > 200 µM |  | > 200 µM | > 200 µM | > 200 µM | 200 µM | > 200 µM

Reference: PMC8596843, “Platinum Cyclooctadiene Complexes with Activity against Gram‐positive Bacteria” (Chemmedchem, 2021)
